Data reported in patent US8241674B2, “Methods and compositions for heavy metal detoxification” (priority 2007, dated 2012).
Read-outs that look alike come from different tables or passages of the source.

Experiments:
[1] = test system: heme oxygenase (HO-1) luciferase reporter; experiment: Heme oxygenase (HO-1) luciferase reporter in HepG2 cells; conditions: HepG2 cell line; for Fold Induction of heme oxygenase luciferase activity: 24 hours, ratio over vehicle control, concentration not given; for expression of heme oxygenase promoter activity (in words): thirty percent induction over DMSO control considered active
[2] = test system: GST enzyme; experiment: GST activity assay in RL-34 cell lysate after treatment; format: cell-based, rat; conditions: RL-34 cells, 2 days, ratio over DMSO control
[3] = test system: phase II enzymes (GSTA1 and NQO1)
[4] = test system: NQO1 enzyme; experiment: NADPH quinone oxido reductase (NQO1) activity assay in RL-34 cell lysate after treatment; conditions: RL-34 cells, 2 days, ratio of treated over vehicle control
[5] = test system: heme oxygenase (HMOX1)
[6] = test system: metallothionein (MT 1, 2)
[7] = test system: Nrf-2; experiment: Western blot of Nrf-2 in the nuclear fraction of HepG2 cells; format: cell-based, human; conditions: 4 hours, FIGS. 3 and 4
Procedure: Western blot detection—The HepG2 cell line was cultured as above and test compounds were added for four hours, after which the cells were lysed and the nuclear fraction was isolated (Dignam, J. D., R. M. Lebovitz, and R. G. Roeder, Nucleic Acids Res, 11(5): 1475-89, 1983). Total protein concentration was determined using the Bicinchoninic Acid Kit (Sigma). Total cell lysates (60 μg total protein) were electrophoresed and detection of Nrf-2 was performed using primary antibody incubation overnight at 4° C. (Santa Cruz Biotechnology, Inc, Santa Cruz, Calif.). Secondary antibody linked to horseradish peroxidase was incubated for one h (GE Healthcare, Piscataway, N.J.), after which proteins were visualized using the enhanced chemiluminescence (ECL) system. Densitometry was performed using Kodak Molecular Imaging Software v.4.0 (Eastman Kodak Company, Rochester, N.Y.) measuring the net intensity of the band.

[8] = HepG2 cells, 8 hours, 25 μg/ml, average of GSTA1 and NQO1

`C=C1CC[C@@H]2[C@](C)(CO)[C@H](O)CC[C@@]2(C)[C@@H]1C/C=C1/C(=O)OC[C@H]1O` [Andrographis, 3-(2-(Decahydro-6-hydroxy-5-(hydroxymethyl)-5,8a-dimethyl-2-methylenenaphthyl)ethylidene)dihydro-4-hydroxyfuran-2(3H)-one] was tested, and the “Fold Induction of heme oxygenase luciferase activity” value [1] was 4.4 fold, the “Fold Induction of GST activity” value ([2]; 25 ug/mL) was 1.4 fold and the “Phase II (ave) Ratio to DMSO” value [3, 8] was 2.29. For the same compound, the “Induction of NQO1 activity” value ([4]; 25 ug/mL) was 4.5, the “HMOX1 Ratio to DMSO” value ([5]; HepG2 cells, 8 hours, 25 μg/ml) was 2.43 and the “MT 1,2 (ave) Ratio to DMSO” value ([6]; HepG2 cells, 8 hours, 25 μg/ml) was 0.87.
For `COc1ccc2cc3[n+](cc2c1OC)CCc1cc2c(cc1-3)OCO2` [Berberine], the “Fold Induction of GST activity” value ([2]; 20 ug/mL) was 1.0 fold and the “Induction of NQO1 activity” value ([4]; 20 ug/mL) was 1.4.
In the case of `O=c1c(-c2ccc(O)cc2)coc2cc(O)cc(O)c12` [Bonistein], the “Fold Induction of GST activity” value ([2]; 20 ug/mL) is reported as 1.0 fold and the “Induction of NQO1 activity” value ([4]; 20 ug/mL) is reported as 1.2.
For `[Cl][Cd][Cl]` [CdCl2, reference compound], the “Phase II (ave) Ratio to DMSO” value ([3]; HepG2 cells, 8 hours, 40 uM, average of GSTA1 and NQO1) was 0.94, the “phase II gene induction (in words)” value ([3]; HepG2 cells, controls) was “unable to increase” and the “HMOX1 Ratio to DMSO” value ([5]; HepG2 cells, 8 hours, 40 uM) was 21.23. For the same compound, the “HMOX1 gene induction (in words)” value ([5]; HepG2 cells, controls) was “induce”, the “MT 1,2 (ave) Ratio to DMSO” value ([6]; HepG2 cells, 8 hours, 40 uM) was 83.31 and the “MT gene induction (in words)” value ([6]; HepG2 cells, controls) was “induce”.
In the case of `COc1cc(C=CC(=O)CC(=O)C=Cc2ccc(O)c(OC)c2)ccc1O` [Curcumin, 1,7-Bis(4-hydroxy-3-methoxyphenyl)hepta-1,6-diene-3,5-dione], the “Fold Induction of heme oxygenase luciferase activity” value [1] is reported as 6.1 fold, the “expression of heme oxygenase promoter activity (in words)” value (“expression” for short) [1] is reported as “induced” and the “Fold Induction of GST activity” value ([2]; 5 ug/mL) is reported as 1.0 fold. For the same compound, the “Phase II (ave) Ratio to DMSO” value ([3]; HepG2 cells, 8 hours, 5 μg/ml, average of GSTA1 and NQO1) was 1.15, the “Induction of NQO1 activity” value ([4]; 5 ug/mL) was 4.6 and the “HMOX1 Ratio to DMSO” value ([5]; HepG2 cells, 8 hours, 5 μg/ml) was 2.09. The “MT 1,2 (ave) Ratio to DMSO” value ([6]; HepG2 cells, 8 hours, 5 μg/ml) was 0.90.
For `CC/C=C\C/C=C\C/C=C\C/C=C\C/C=C\C/C=C\CCC(=O)O` [DHA], the “Fold Induction of GST activity” value ([2]; 20 ug/mL) was 1.0 fold and the “Induction of NQO1 activity” value ([4]; 20 ug/mL) was 0.9.
For `C[C@]12CC[C@H](O)CC1=CC[C@@H]1[C@@H]2CC[C@]2(C)C(=O)CC[C@@H]12` [DHEA], the “Induction of NQO1 activity” value ([4]; 20 ug/mL) was 1.1.
In the case of `c1ccc2c(Cc3c[nH]c4ccccc34)c[nH]c2c1` [DIM], the “Induction of NQO1 activity” value ([4]; 25 ug/mL) is reported as 1.5.
With `CC1(C)C=Cc2c(ccc3c2OC[C@@H](c2ccc(O)cc2O)C3)O1` [Glabridin] the “Fold Induction of GST activity” value ([2]; 20 ug/mL) was 1.0 fold and the “Induction of NQO1 activity” value ([4]; 20 ug/mL) was 1.0.
`N[C@H]1C(O)O[C@H](CO)[C@@H](O)[C@@H]1O` (stereo partly drawn) [Glucosamine] was tested, and the “Fold Induction of GST activity” value ([2]; 20 ug/mL) was 1.1 fold and the “Induction of NQO1 activity” value ([4]; 20 ug/mL) was 1.0.
For `OCc1c[nH]c2ccccc12` [I3C], the “Fold Induction of GST activity” value ([2]; 25 ug/mL) was 1.1 fold and the “Induction of NQO1 activity” value ([4]; 25 ug/mL) was 2.4.
In the case of `CC(C)Oc1ccc2c(=O)c(-c3ccccc3)coc2c1` [Ipriflavone], the “Fold Induction of GST activity” value ([2]; 20 ug/mL) is reported as 1.1 fold and the “Induction of NQO1 activity” value ([4]; 20 ug/mL) is reported as 0.8.
In the case of `O=C([O-])CC(O)(CC(=O)[O-])C(=O)[O-].[K+].[K+].[K+]` [K-Citrate], the “Fold Induction of GST activity” value ([2]; 20 ug/mL) is reported as 1.1 fold and the “Induction of NQO1 activity” value ([4]; 20 ug/mL) is reported as 0.9.
For `CC1(C)CC[C@]2(C(=O)O)CC[C@]3(C)C(=CC[C@@H]4[C@@]5(C)CC[C@H](O)C(C)(C)[C@@H]5CC[C@]43C)[C@@H]2C1` [Oleanolic acid], the “Fold Induction of heme oxygenase luciferase activity” value [1] was 2.7 fold, the “expression” value [1] was “induced” and the “Fold Induction of GST activity” value ([2]; 25 ug/mL) was 1.0 fold. The “Phase II (ave) Ratio to DMSO” value [3, 8] was 0.91, the “Induction of NQO1 activity” value ([4]; 25 ug/mL) was 1.5 and the “HMOX1 Ratio to DMSO” value ([5]; HepG2 cells, 8 hours, 25 μg/ml) was 1.88. For the same compound, the “MT 1,2 (ave) Ratio to DMSO” value ([6]; HepG2 cells, 8 hours, 25 μg/ml) was 2.39.
`C/C=C1/[C@H](O[C@@H]2O[C@H](CO)[C@@H](O)[C@H](O)[C@H]2O)OC=C(C(=O)OC)[C@H]1CC(=O)OCCc1ccc(O)c(O)c1` [Oleuropein] was tested, and the “Fold Induction of GST activity” value ([2]; 20 ug/mL) was 1.0 fold and the “Induction of NQO1 activity” value ([4]; 20 ug/mL) was 1.0.
`O=C(CCc1ccc(O)cc1)c1c(O)cc(O)cc1O[C@@H]1O[C@H](CO)[C@@H](O)[C@H](O)[C@H]1O` [Phloridzin] was tested, and the “Fold Induction of GST activity” value ([2]; 20 ug/mL) was 1.0 fold and the “Induction of NQO1 activity” value ([4]; 20 ug/mL) was 1.0.
With `O=c1c(O)c(-c2ccc(O)c(O)c2)oc2cc(O)cc(O)c12` [Quercitin] the “Fold Induction of GST activity” value ([2]; 20 ug/mL) was 1.0 fold and the “Induction of NQO1 activity” value ([4]; 20 ug/mL) was 1.4.
With `Oc1ccc(C=Cc2cc(O)cc(O)c2)cc1` [Resveratrol] the “Induction of NQO1 activity” value ([4]; 20 ug/mL) was 2.2.
For `C[C@@H]1O[C@@H](OC[C@H]2O[C@@H](Oc3c(-c4ccc(O)c(O)c4)oc4cc(O)cc(O)c4c3=O)[C@H](O)[C@@H](O)[C@@H]2O)[C@H](O)[C@H](O)[C@H]1O` [Rutin], the “Fold Induction of GST activity” value ([2]; 20 ug/mL) was 1.0 fold and the “Induction of NQO1 activity” value ([4]; 20 ug/mL) was 0.9.
For `C[S+]([O-])CCCCN=C=S` (stereo not drawn) [Sulforaphane, reference compound], the “Fold Induction of heme oxygenase luciferase activity” value [1] was 4.2 fold, the “expression” value [1] was “induced” and the “Fold Induction of GST activity” value ([2]; 3 ug/mL) was 1.8 fold. The “Phase II (ave) Ratio to DMSO” value [3] was 1.84, the “phase II gene induction (in words)” value [3] was “increased” and the Nrf-2 nuclear translocation [7] was “dramatic increase”. For the same compound, the “Induction of NQO1 activity” value ([4]; 3 ug/mL) was 3.7, the “HMOX1 Ratio to DMSO” value [5] was 8.82 and the “HMOX1 gene induction (in words)” value [5] was “increased”. The “MT 1,2 (ave) Ratio to DMSO” value [6] was 0.67 and the “MT gene induction (in words)” value [6] was “but not MT”.
In the case of `O=c1oc2c(O)c3oc(=O)c4c5c(oc(=O)c6cc(O)c(O)c(O)c65)c(O)c5oc(=O)c(c2c2c(O)c(O)c(O)cc12)c3c54` [Terminalin], the “Fold Induction of heme oxygenase luciferase activity” value [1] is reported as 1.7 fold, the “expression” value [1] is reported as “induced” and the “Fold Induction of GST activity” value ([2]; 25 ug/mL) is reported as 1.0 fold. The “Induction of NQO1 activity” value ([4]; 25 ug/mL) was 1.0.
`O=C1O[C@H]([C@@H](O)CO)C(O)=C1O` [Vitamin C] was tested, and the “Fold Induction of GST activity” value ([2]; 20 ug/mL) was 1.1 fold and the “Induction of NQO1 activity” value ([4]; 20 ug/mL) was 0.9.
In the case of `CC(C)=CCC/C(C)=C/CC/C(C)=C/CC/C(C)=C/CC1=C(C)C(=O)c2ccccc2C1=O` [Vitamin K2], the “Induction of NQO1 activity” value ([4]; 20 ug/mL) is reported as 0.9.
With `COc1cc(O)c(CC=C(C)C)c(O)c1C(=O)/C=C/c1ccc(O)cc1` [Xanthohumol] the “Fold Induction of heme oxygenase luciferase activity” value [1] was 5.4 fold, the “expression” value [1] was “induced” and the “Fold Induction of GST activity” value ([2]; 1 ug/mL) was 1.4 fold. The “Phase II (ave) Ratio to DMSO” value ([3]; HepG2 cells, 8 hours, 1 μg/ml, average of GSTA1 and NQO1) was 1.02, the “Induction of NQO1 activity” value ([4]; 1 ug/mL) was 3.7 and the “HMOX1 Ratio to DMSO” value ([5]; HepG2 cells, 8 hours, 1 μg/ml) was 1.11. The “MT 1,2 (ave) Ratio to DMSO” value ([6]; HepG2 cells, 8 hours, 1 μg/ml) was 0.90.
For `[Cl-].[Cl-].[Zn+2]` [ZnCl2], the “Fold Induction of heme oxygenase luciferase activity” value [1] was 1.5 fold, the “expression” value [1] was “induced” and the “Phase II (ave) Ratio to DMSO” value ([3]; HepG2 cells, 8 hours, 10 μg/ml, average of GSTA1 and NQO1) was 0.94. For the same compound, the “HMOX1 Ratio to DMSO” value ([5]; HepG2 cells, 8 hours, 10 μg/ml) was 0.97 and the “MT 1,2 (ave) Ratio to DMSO” value ([6]; HepG2 cells, 8 hours, 10 μg/ml) was 12.43.
`O=C(/C=C/c1ccc(O)c(O)c1)O[C@@H]1C[C@](O)(C(=O)O)C[C@@H](O)[C@H]1O` [chlorogenic acid] was tested, and the “Fold Induction of GST activity” value ([2]; 25 ug/mL) was 1.1 fold and the “Induction of NQO1 activity” value ([4]; 25 ug/mL) was 1.2.
Hyaluronic acid was tested, and the “Induction of NQO1 activity” value ([4]; 20 ug/mL) was 0.9.
With Inulin the “Induction of NQO1 activity” value ([4]; 20 ug/mL) was 0.9.
